{"source": "ChEMBL document CHEMBL1201862", "about": "“PubChem BioAssay data set” (2004)", "test_in_all_cases": "growth of human tumour cells (NCI), 48 h", "key": {"786-0": {"system": "786-0"}, "SNB-75": {"system": "SNB-75"}, "SF-539": {"system": "SF-539"}, "CCRF-CEM": {"system": "CCRF-CEM"}, "COLO 205": {"system": "COLO 205"}, "U-251": {"system": "U-251"}, "UACC-62": {"system": "UACC-62"}, "MDA-MB-435": {"system": "MDA-MB-435"}, "DU-145": {"system": "DU-145"}, "OVCAR-5": {"system": "OVCAR-5"}, "HT-29": {"system": "HT-29"}, "NCI-H226": {"system": "NCI-H226"}, "Hs-578T": {"system": "Hs-578T"}, "T47D": {"system": "T47D"}, "A498": {"system": "A498"}, "SF-295": {"system": "SF-295"}, "Malme-3M": {"system": "Malme-3M"}, "HCT-15": {"system": "HCT-15"}, "MDA-MB-231": {"system": "MDA-MB-231"}, "SNB-19": {"system": "SNB-19"}}, "note": "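Values below derive from 48-hour exposures of cells grown in 96-well plates, with endpoints linearly interpolated between the two concentrations bracketing the appropriate inhibition level. At the GI50, growth is halved.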 Active and inactive are the calls of the source. No stated cut-off is given here; in the data, active = GI50 up to about 1.1 µM and inactive = higher."}
{"smiles": "CCC(C)C1NC(=O)C(NC(=O)C(CC(C)C)N(C)C(=O)[C@@H]2CC(O)CN2C(=O)[C@H](C)O)C(C)OC(=O)[C@H](Cc2ccc(OC)cc2)N(C)C(=O)[C@@H]2CCCN2C(=O)[C@H](CC(C)C)NC(=O)C(C)C(=O)[C@H](C(C)C)OC(=O)CC1O", "note": "(stereo not given in full)", "values": [{"measurement": "GI50", "setting": "786-0", "result": "258 nM (active)"}, {"measurement": "GI50", "setting": "SNB-75", "result": "141 nM (active)"}, {"measurement": "GI50", "setting": "SF-539", "result": "31.9 nM (active)"}, {"measurement": "GI50", "setting": "CCRF-CEM", "result": "191 nM (active)"}, {"measurement": "GI50", "setting": "COLO 205", "result": "117 nM (active)"}, {"measurement": "GI50", "setting": "U-251", "result": "71.8 nM (active)"}, {"measurement": "GI50", "setting": "UACC-62", "result": "54.2 nM (active)"}, {"measurement": "GI50", "setting": "MDA-MB-435", "result": "152 nM (active)"}, {"measurement": "GI50", "setting": "DU-145", "result": "356 nM (active)"}, {"measurement": "GI50", "setting": "OVCAR-5", "result": "265 nM (active)"}, {"measurement": "GI50", "setting": "HT-29", "result": "134 nM (active)"}, {"measurement": "GI50", "setting": "NCI-H226", "result": "64.1 nM (active)"}, {"measurement": "GI50", "setting": "Hs-578T", "result": "26.6 nM (active)"}, {"measurement": "GI50", "setting": "T47D", "result": "45.2 nM (active)"}, {"measurement": "GI50", "setting": "A498", "result": "759 nM (active)"}, {"measurement": "GI50", "setting": "SF-295", "result": "225 nM (active)"}, {"measurement": "GI50", "setting": "Malme-3M", "result": "66.4 nM (active)"}, {"measurement": "GI50", "setting": "HCT-15", "result": 2130, "unit": "nM"}, {"measurement": "GI50", "setting": "MDA-MB-231", "result": "349 nM (active)"}, {"measurement": "GI50", "setting": "SNB-19", "result": "164 nM (active)"}]}
